Measurements published in patent publication US20250059205A1, “Heterocyclic Compounds and Methods of Use” (AMGEN INC., priority 2021, published 2025).

Assays:
[1] = system: Phosphorylation of ERK1/2 in AsPC-1 cells; assay: Phospho-ERK1/2 MSD Assay (AsPC-1 cells); assay type: cell-based; conditions: Homo sapiens, ASPC1, 2 h, 2 hours treatment, read-out: p-ERK (AsPC-1 cells) IC50
Protocol: (§1) AsPC-1 (ATCC® CRL-1682™) cells were cultured in RPMI 1640 Medium (ThermoFisher Scientific 11875093) containing 10% fetal bovine serum (ThermoFisher Scientific 16000044) and 1× penicillin-streptomycin-glutamine (ThermoFisher Scientific 10378016). Sixteen hours prior to compound treatment, AsPC-1 cells were seeded in 96-well cell culture plates at a density of 25,000 cells/well and incubated at 37° C., 5% CO2. A compound dose-response titration was diluted in growth media, added to appropriate wells of a cell culture plate, and then incubated at 37° C., 5% CO2 for 2 hours. Following compound treatment, cells were washed with ice-cold Dulbecco's phosphate-buffered saline, no Ca^2+ or Mg^2+ (ThermoFisher Scientific 14190144), and then lysed in RIPA buffer (50 mM Tris-HCl pH 7.5, 1% Igepal, 0.5% sodium deoxycholate, 150 mM NaCl, and 0.5% sodium dodecyl sulfate) containing protease inhibitors (Roche 4693132001) and phosphatase inhibitors (Roche 4906837001). Phosphorylation of ERK1/2 in compound-treated lysates was assayed using Phospho-ERK1/2 Whole Cell Lysate kits (Meso Scale Discovery K151DWD) according to the manufacturer's protocol. Assay plates were read on a Meso Scale Discovery Sector Imager 6000, and data were analyzed using a 4-parameter logistic model to calculate IC50 values.

[2] = system: Phosphorylation of ERK1/2 in A-427 cells; assay: Phospho-ERK1/2 MSD Assay (A-427 cells); assay type: cell-based; conditions: Homo sapiens, A-427, 2 h, 2 h treatment, read-out: p-ERK (A427 cells) IC50
Protocol: as §1, with “A-427” for “AsPC-1”, “HTB-53™)” for “CRL-1682™)”, “h.” for “hours.”

[3] = target: His-tagged KRAS G12D protein (Homo sapiens, UniProt P01116, G12D); assay: KRAS G12D TR-FRET Assay; assay type: binding
Protocol: Compounds of interest were prepared in a dose-response titration in DMSO, and 80 nL were added via Labcyte Echo to each well of a 384-well plate (Perkin Elmer 6008280). […] The plate was incubated for 30 minutes at room temperature. Biotinylated KRPep-2d substrate (Amgen) was diluted to 20 nM in Assay Buffer and 2 μL was added to all wells and incubated for 1 h at room temperature. Detection Reagent (0.4 nM LANCE Eu-W1024 Anti-6xHis (Perkin Elmer AD0401), 5 nM streptavidin-d2 (Cisbio 610SADLA)) was prepared in Assay Buffer, then 4 μL was added to the plate and incubated for 1 h at room temperature. Plates were read using PerkinElmer EnVision (ex: 320 nm, em1: 665 nm, em2: 615 nm) and em1/em2 data was used to generate curve fits using a 4-parameter logistic model to calculate IC50 values.

[4] = target: GDP-bound KRAS protein (aa 1-169), containing both G12D and C118A amino acid substitutions (Homo sapiens, UniProt P01116, C118A/G12D); assay: KRAS G12D Coupled Nucleotide Exchange Assay; assay type: biochemical; conditions: 2 h compound pre-incubation
Protocol: Following compound pre-incubation, purified SOS protein (aa 564-1049) and GTP (Roche 10106399001) were added to the assay wells and incubated for an additional 30 min. […] The assay plates were then read on a PerkinElmer EnVision Multilabel Reader, using AlphaScreen® technology, and data were analyzed using a 4-parameter logistic model to calculate IC50 values.

Sequence of His-tagged KRAS G12D protein (P01116 1-188 isoform P01116-2 G12D): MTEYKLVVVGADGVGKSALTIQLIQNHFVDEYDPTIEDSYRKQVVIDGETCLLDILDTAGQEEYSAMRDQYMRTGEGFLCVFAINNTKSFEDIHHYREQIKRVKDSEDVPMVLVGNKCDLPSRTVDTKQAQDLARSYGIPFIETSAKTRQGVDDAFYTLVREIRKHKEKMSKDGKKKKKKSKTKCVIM
Sequence of GDP-bound KRAS protein (aa 1-169), containing both G12D and C118A amino acid substitutions (P01116 1-169 isoform P01116-2 G12D/C118A): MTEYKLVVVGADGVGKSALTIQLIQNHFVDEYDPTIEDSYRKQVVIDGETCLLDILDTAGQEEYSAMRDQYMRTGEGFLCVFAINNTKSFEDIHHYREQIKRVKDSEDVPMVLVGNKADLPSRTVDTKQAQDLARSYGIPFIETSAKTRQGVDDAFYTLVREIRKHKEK

| SMILES | IC50 [1] [nM] | IC50 [2] [nM] | IC50 [3] [nM] | Avg 2 h Coupled Exchange IC50 [4] [nM] |
| --- | --- | --- | --- | --- |
| CN1C[C@H](F)C[C@H]1COc1nc(N2[C@@H]3CNC[C@H]2COC3)c2ccc(-c3cc(O)cc4ccccc34)c(F)c2n1 [Example 6, 4-(4-((1R,5S)-3-oxa-7,9-diazabicyclo[3.3. 1]nonan-9-yl)-8-fluoro-2-(((2S,4R)-4-fluoro-1-methylpyrrolidin-2-yl)methoxy)quinazolin-7-yl)naphthalen-2-ol] | 5130 | 2310 | 49 | 22 |
| CN1C[C@H](F)C[C@H]1COc1nc(N2C[C@H]3C[C@@H](C2)N3)c2ccc(-c3cc(O)cc4ccccc34)c(F)c2n1 [Example 7, 4-(4-((1R,5S)-3,6-diazabicyclo[3.1. 1]heptan-3-yl)-8-fluoro-2-(((2S,4R)-4-fluoro-1-methylpyrrolidin-2-yl)methoxy)quinazolin-7-yl)naphthalen-2-ol] | 3300 | 3510 | 75 | 35 |
| Oc1cc(-c2ccc3c(N4C[C@H]5C[C@@H](C4)N5)nc(OCC45CCCN4CC(F)(F)C5)nc3c2F)c2ccccc2c1 (stereo partly drawn) [Example 8, 4-(4-((1R,5S)-3,6-diazabicyclo[3.1. 1]heptan-3-yl)-2-((2,2-difluorotetrahydro-1H-pyrrolizin-7a(5H)-yl)methoxy)-8-fluoroquinazolin-7-yl)naphthalen-2-ol] | 6940 | 7880 | 92 | 87 |
| CN1CCC[C@H]1CCOc1nc(N2[C@@H]3CNC[C@H]2COC3)c2ccc(-c3cc(O)cc4ccccc34)c(F)c2n1 [Example 9, 4-(4-((1R,5S)-3-oxa-7,9-diazabicyclo[3.3. 1]nonan-9-yl)-8-fluoro-2-(2-((S)-1-methylpyrrolidin-2-yl)ethoxy)quinazolin-7-yl)naphthalen-2-ol] | > 25000 | > 25000 | 456 | 125 |
| Oc1cc(-c2ccc3c(N4[C@@H]5CNC[C@H]4COC5)nc(OCC45CCCN4CC(F)(F)C5)nc3c2F)c2ccccc2c1 (stereo partly drawn) [Example 10, 4-(4-((1R,5S)-3-oxa-7,9-diazabicyclo[3.3. 1]nonan-9-yl)-2-((2,2-difluorotetrahydro-1H-pyrrolizin-7a(5H)-yl)methoxy)-8-fluoroquinazolin-7-yl)naphthalen-2-ol] | 6270 | 5240 | 106 | 132 |
| Oc1cc(-c2ccc3c(N4[C@@H]5CC[C@H]4CNC5)nc(OC[C@@]45CCCN4C[C@H](F)C5)nc3c2)c2ccccc2c1 [Example 11, 4-(4-((1R,5S)-3,8-diazabicyclo[3.2. 1]octan-8-yl)-2-(((2R,7aS)-2-fluorotetrahydro-1H-pyrrolizin-7a(5H)-yl)methoxy)quinazolin-7-yl)naphthalen-2-ol] | 1530 | 2510 | 21 | 9 |
| Oc1cc(-c2c(F)cc3c(N4C[C@H]5C[C@@H](C4)N5)nc(OC[C@@]45CCCN4C[C@H](F)C5)nc3c2F)c2ccccc2c1 [Example 13, 4-(4-((1R,5S)-3,6-diazabicyclo[3.1. 1]heptan-3-yl)-6,8-difluoro-2-(((2R,7aS)-2-fluorotetrahydro-1H-pyrrolizin-7a(5H)-yl)methoxy)quinazolin-7-yl)naphthalen-2-ol] | 1730 | 238 | 7 | 6 |
| Oc1cc(-c2c(F)cc3c(N4[C@@H]5CNC[C@H]4COC5)nc(OC[C@@]45CCCN4C[C@H](F)C5)nc3c2F)c2ccccc2c1 [Example 14, 4-(4-((1R,5S)-3-oxa-7,9-diazabicyclo[3.3.1]nonan-9-yl)-6,8-difluoro-2-(((2R,7aS)-2-fluorotetrahydro-1H-pyrrolizin-7a(5H)-yl)methoxy)quinazolin-7-yl)naphthalen-2-ol] | 762 | 274 | 9 | 8 |
| Oc1cc(-c2c(F)cc3c(N4C[C@H]5COC[C@@H](C4)N5)nc(OC[C@@]45CCCN4C[C@H](F)C5)nc3c2F)c2ccccc2c1 [Example 15, 4-(4-((1R,5S)-3-oxa-7,9-diazabicyclo[3.3. 1]nonan-7-yl)-6,8-difluoro-2-(((2R,7aS)-2-fluorotetrahydro-1H-pyrrolizin-7a(5H)-yl)methoxy)quinazolin-7-yl)naphthalen-2-ol] | 3220 | 1550 | 20 | 14 |
| CN1C[C@H](F)C[C@H]1COc1nc(N2[C@@H]3CC[C@H]2CNC3)c2cc(F)c(-c3cc(O)cc4ccccc34)c(F)c2n1 [Example 17, 4-(4-((1R,5S)-3,8-diazabicyclo[3.2. 1]octan-8-yl)-6,8-difluoro-2-(((2S,4R)-4-fluoro-1-methylpyrrolidin-2-yl)methoxy)quinazolin-7-yl)naphthalen-2-ol] | 949 | 1290 | 26 | 17 |
| CN1C[C@H](F)C[C@H]1COc1nc(N2[C@@H]3CNC[C@H]2COC3)c2cc(F)c(-c3cc(O)cc4ccccc34)c(F)c2n1 [Example 18, 4-(4-((1R,5S)-3-oxa-7,9-diazabicyclo[3.3. 1]nonan-9-yl)-6,8-difluoro-2-(((2S,4R)-4-fluoro-1-methylpyrrolidin-2-yl)methoxy)quinazolin-7-yl)naphthalen-2-ol] | 2960 | 1590 | 60 | 18 |
| CN1C[C@H](F)C[C@H]1COc1nc(N2C[C@H]3C[C@@H](C2)N3)c2cc(F)c(-c3cc(O)cc4ccccc34)c(F)c2n1 [Example 19, 4-(4-((1R,5S)-3,6-diazabicyclo[3.1. 1]heptan-3-yl)-6,8-difluoro-2-(((2S,4R)-4-fluoro-1-methylpyrrolidin-2-yl)methoxy)quinazolin-7-yl)naphthalen-2-ol] | 2090 | 1790 | 58 | 28 |
| Oc1cc(-c2c(F)cc3c(N4C[C@H]5C[C@@H](C4)N5)nc(OCC45CCCN4CC(F)(F)C5)nc3c2F)c2ccccc2c1 (stereo partly drawn) [Example 20, 4-(4-((1R,5S)-3,6-diazabicyclo[3.1. 1]heptan-3-yl)-2-((2,2-difluorotetrahydro-1H-pyrrolizin-7a(5H)-yl)methoxy)-6,8-difluoroquinazolin-7-yl)naphthalen-2-ol] | 5560 | 7280 | 87 | 40 |
| CN1CCC[C@H]1CCOc1nc(N2C[C@H]3C[C@@H](C2)N3)c2cc(F)c(-c3cc(O)cc4ccccc34)c(F)c2n1 [Example 21, 4-(4-((1R,5S)-3,6-diazabicyclo[3.1. 1]heptan-3-yl)-6,8-difluoro-2-(2-((S)-1-methylpyrrolidin-2-yl)ethoxy)quinazolin-7-yl)naphthalen-2-ol] | 9080 | 18100 | 314 | 78 |
